Measured values reported in patent publication EP4299131A1, “HYDROPHILIC PHENALENONES AND THEIR USE IN ANTIMICROBIAL PHOTODYNAMIC THERAPY” (Centre national de la recherche scientifique, priority 2022, dated 2024).
Read-outs that look alike come from different tables or passages of the source.

Key:
[1] = actinometer value of SAPYR, excitation at 355 nm, ref [27]; cited from earlier work
[2] = tested on: Pseudomonas aeruginosa CIP76.110; experiment: Antibacterial photodynamic inactivation, MIC/MBC by micromethod in 96-well plates; type: cell-based; conditions: for MBC / MIC: Pseudomonas aeruginosa
Method: (§1) To evaluate the biological activity of the molecules, the minimal inhibitory concentration (MIC) and the minimal bactericidal concentration (MBC) were determined on bacterial cultures (Staphylococcus aureus CIP76.25, Pseudomonas aeruginosa CIP76.110) by micromethod in 96-well plates. Briefly, bacterial cultures in log-phase were diluted in sterile PBS 1X at a concentration equivalent to 4×10^6 UFC/mL. Serial dilutions of different molecules were performed in PBS 1X to a final concentration from 200 to 1.5 µM and 50 µl of each dilution were added in the microplate wells. Then, 50 µl of diluted bacterial culture were added in each well. Two different plates for each strain were prepared: one plate for the dark condition and a second plate for light irradiation.
(§2) Two controls were included; a bacterial growth control with no molecule added and a negative control with PBS without bacterial inoculum and no molecules.
(§3) The microplate was incubated at 37°C for 1h in dark condition. After that, bacteria were irradiated with LED white light (total fluence: 25J/cm^2). During the time of irradiation, the second plate was maintained in the dark. Then, 100 µL of 2-fold concentrated TS broth were added in each well and the microplate was incubated at 37°C for 24h. The MIC values were determined as the lowest concentration without observed bacterial growth. For determination of the MBC, 100 µl from wells where no evident growth was observed were diluted in physiological water (NaCl 0.9%). All 10-fold serial dilutions were spread on TS agar plates using an automatic plater (easySPIRAL®, Interscience, Saint-Nom La Bretêche, France). After incubation at 37 °C for 24 h, colonies were counted to determine total CFU per mL (CFU/mL). The MBC corresponds to the concentration of the active compound for which 99.99% of the bacteria have been killed (i.e. 4 log reduction compared to the untreated control). Three independent experiments were performed with each strain.

[3] = tested on: Staphylococcus aureus CIP76.25; experiment: as above; type: cell-based
Method: as §1, §2, §3

[4] = Photochemical stability under blue light monitored by 1H NMR; type: physicochemical; conditions: D2O, irradiation at 470 nm (3.5 mW.cm^-2) for 24h, under oxygen or Argon
Method: Photochemical stability: In an NMR tube, a solution of dyes 1a-c or SAPYR in D2O ([C] = 17.5 mmol/L) was irradiated at 470 nm (3.5 mW.cm^-2) under oxygen or Argon atmosphere (the gas was bublled solution was oxygenated or degassed by bubbling through the solution for 5 minutes and put under gas atmosphere). 1H NMR spectra were recorded after 24h irradiation time for each sample.

[5] = UV/Visible and fluorescence spectroscopy, fluorescence lifetime (TCSPC); type: physicochemical; conditions: for ΦF (fluorescence quantum yield): 6-ethoxyphenalenone as actinometer; for ε: at the longest-wavelength absorption maximum; for λmax(em): excited at 400 nm
Method: UV/Visible and fluorescence spectroscopy: UV-Vis spectra were recorded on an Agilent 8453 Diode-Array spectrophotometer in the range of 250-700 nm. Emission spectra were measured in an ISS PC1 spectrofluorometer at room temperature. Fluorescence quantum yields were determined using equation (1) and 6-ethoxy-phenalenone in methanol as reference. ΦF,sample = ΦF,reference (Areference)/(Asample)(Isample)/(Ireference)(((ηsample)/(ηreference)))^2 [formula] ΦF is the fluorescence quantum yields. A: is the absorbance in the wavelength of excitation, I correspond to area of the emission spectra and η is the refractive index of the solvent. The excitation wavelength was 400 nm for all steady state fluorescence experiments.
Luminescence lifetime measurements were carried out using a PicoQuant FluoTime 200 fluorescence lifetime spectrometer with a multichannel scaler (PicoQuant's Timeharp 250) with the time correlated single photon counting (TCSPC) method. As excitation resource laser 405 nm was employed.

[6] = Singlet oxygen quantum yield by chemical trapping with ADPA; type: physicochemical; conditions: D2O (470 nm); ADPA as chemical probe, Eosin Y as reference
Method: Chemical trapping experiments: Quantum yields of singlet oxygen produced by 1a-c was evaluated by monitoring the UV/Visible absorption change in an Agilent 8453 Diode-Array spectrophotometer of 3,3'-anthracene-9,10-diyldipropanoic acid (ADPA) which is a well-known singlet oxygen trap. […] A solution of 1a-c in deuterated water (A473nm = 0.06) was prepared and an aliquot of ADPA in deuterated water was added to reach A378nm = 0.74. The photoabsorption spectral change of ADPA solution with photosensitizers 1a-c was monitored following the decrease of the band at 382 nm. Plots of Ln(A/A0) vs. time (s) give linear graphs for which the slope is the experimental kinetic rate constant (k, s^-1) (Ao is the initial absorption intensity and A is the absorption intensity at the time t). From comparison of experimental rate constants between phenalenone derivatives 1a-c and two selected actinometers (Eosin Y and Riboflavin, see supporting information for results using Riboflavin) using optically-matched solutions, singlet oxygen quantum yields of the photosensitizers ΦΔ can be determined from the following equation: φΔ = (k)/(kref) × φΔ,ref [formula]

[7] = Singlet oxygen quantum yield by 1O2 phosphorescence at 1270 nm; type: physicochemical; conditions: phosphorescence method
Method: Singlet oxygen quantum yield measurements: Lifetime decays of singlet oxygen, O2(^1Δg), were acquired with a FluoTime 200 equipped with multichannel scaler Nanoharp 200. […] For the detection at 1270 nm a NIR PMT H10330A (Hamamatsu) was employed. The O2(^1Δg) quantum yields (ΦΔ) were determined by comparing the intensity at zero time of the 1270 nm signals to those of optically-matched solutions of SAPYR or Eosin Y as references.

[8] = CIP76, light or radiation study
[9] = D2O (470 nm), Eosin Y as actinometer
[10] = D2O, SAPYR as actinometer, excitation at 355 nm
[11] = DMSO, SAPYR as actinometer, excitation at 355 nm
[12] = MeOH, SAPYR as actinometer, excitation at 355 nm
[13] = CIP76, light or radiation study, P.a, light (L), LED white light, total fluence 25 J/cm^2, read-out: MBC
[14] = CIP76, light or radiation study, P.a, light (L), LED white light, total fluence 25 J/cm^2, read-out: MIC
[15] = CIP76, P.a, dark (D), read-out: MBC
[16] = CIP76, P.a, dark (D), read-out: MIC
[17] = CIP76, S.a, dark (D), read-out: MBC
[18] = CIP76, S.a, dark (D), read-out: MIC
[19] = CIP76, light or radiation study, S.a, light (L), LED white light, total fluence 25 J/cm^2, read-out: MBC
[20] = CIP76, light or radiation study, S.a, light (L), LED white light, total fluence 25 J/cm^2, read-out: MIC

Compound | TF (singlet lifetime) ([5]; DMSO) [ns] | Δλ (Stokes shift) ([5]; DMSO) [nm] | λabs ([5]; DMSO) [nm] | ΦF (fluorescence quantum yield) ([5]; DMSO) | ε ([5]; DMSO) [M⁻¹ cm⁻¹] | λmax(em) ([5]; DMSO) [nm] | TF (singlet lifetime) ([5]; H2O) [ns] | Δλ (Stokes shift) ([5]; H2O) [nm] | λabs ([5]; H2O) [nm] | ΦF (fluorescence quantum yield) ([5]; H2O) | ε ([5]; H2O) [M⁻¹ cm⁻¹] | λmax(em) ([5]; H2O) [nm] | TF (singlet lifetime) ([5]; MeOH) [ns] | Δλ (Stokes shift) ([5]; MeOH) [nm] | λabs ([5]; MeOH) [nm] | ΦF (fluorescence quantum yield) ([5]; MeOH) | ε ([5]; MeOH) [M⁻¹ cm⁻¹] | λmax(em) ([5]; MeOH) [nm] | ΦΔ [6] | ΦΔ [7, 9] | other results
O=C1C(C[n+]2ccccc2)=Cc2cccc3cccc1c23 [SAPYR, reference compound] | – | – | – | – | – | – | – | – | – | – | – | – | – | – | – | – | – | – | – | – | ΦΔ [1]: 1.02; MBC [2, 8]: > 200 µM; MIC [2, 8]: > 200 µM; photodynamic effects ([2]; illumination under white light): did not exhibit any photodynamic effects; MBC [3, 8]: 167 µM; MIC [3, 8]: 83.3 µM; photochemical stability [4]: complete decomposition
COc1ccc2c3c(cc(C[N+](C)(C)Cc4ccccc4)c(-c4ccccc4)c13)C(=O)C=C2.[Cl-] [1a, N-benzyl-1-(6-methoxy-1-oxo-7-phenyl-1H-phenalen-8-yl)-N,N-dimethylmethanaminium chloride] | 6.04 | 92 | 441 | 0.069 | 11426 | 533 | 7.65 | 90 | 459 | 0.241 | 9239 | 549 | 8.15 | 95 | 447 | 0.221 | 9363 | 542 | 0.09 | 0.12 | ΦΔ [7, 10]: 0.06; ΦΔ [7, 11]: 0.79; ΦΔ [7, 12]: 0.10; MBC [2, 13]: > 200 µM; MIC [2, 14]: > 200 µM; MBC [2, 15]: > 200 µM; MIC [2, 16]: > 200 µM; MBC [3, 17]: > 200 µM; MIC [3, 18]: 167 µM; MBC [3, 19]: 133 µM; MIC [3, 20]: 50 µM
COc1ccc2c3c(cc(CN(CCO)CCO)c(-c4ccccc4)c13)C(=O)C=C2.Cl [1c, 8-((bis(2-hydroxyethyl)amino)methyl)-6-methoxy-7-phenyl-1H-phenalen-1-one chloride] | 5.38 | 92 | 441 | 0.071 | 11984 | 533 | 7.39 | 92 | 459 | 0.217 | 10053 | 551 | 8.24 | 96 | 446 | 0.233 | 12256 | 542 | 0.08 | 0.09 | ΦΔ [7, 10]: 0.06; ΦΔ [7, 11]: 0.91; ΦΔ [7, 12]: 0.15; MBC [2, 13]: 41.7 µM; MIC [2, 14]: 33 µM; MBC [2, 15]: > 200 µM; MIC [2, 16]: > 200 µM; MBC [3, 17]: > 200 µM; MIC [3, 18]: > 200 µM; MBC [3, 19]: 41.7 µM; MIC [3, 20]: 41.7 µM
COc1ccc2c3c(cc(C[n+]4ccccc4)c(-c4ccccc4)c13)C(=O)C=C2.[Cl-] [1b, 1-((6-methoxy-1-oxo-7-phenyl-1H-phenalen-8-yl)methyl)pyridin-1-ium chloride] | 6.24 | 91 | 444 | 0.067 | 10472 | 535 | 7.15 | 88 | 463 | 0.192 | 9259 | 551 | 7.65 | 95 | 447 | 0.209 | 9344 | 542 | 0.15 | 0.11 | ΦΔ [7, 10]: 0.06; ΦΔ [7, 11]: 0.63; ΦΔ [7, 12]: 0.12; MBC [2, 13]: > 200 µM; MIC [2, 14]: > 200 µM; MBC [2, 15]: > 200 µM; MIC [2, 16]: > 200 µM; MBC [3, 17]: > 200 µM; MIC [3, 18]: > 200 µM; MBC [3, 19]: 67 µM; MIC [3, 20]: 50 µM
